Experiment [1] concerns bzuA. The experiment is described as follows: RNA blots of bzuA expression. The experiment is classed as cell-based, A. nidulans. As to conditions: benzoic acid in the media. From the text:
On the other hand, while N. crassa also contains a bphA homolog, there is no current information available as to its response to benzoic acid.

In experiment [2] the test system is bphA gene promoter. The experiment is described as follows: bphA promoter-GFP fusions, benzoic acid-dependent GFP expression. The experiment is classed as cell-based, Aspergillus nidulans strain GR5. As to conditions: 8 mM benzoic acid, 5 hours; full promoter (1.8 kbp) and FR6 (0.4 kbp). As for the experimental part:
In order to determine the minimal promoter length capable of retaining benzoic acid inducibility, promoter fusions to the Green Fluorescent Protein (GFP) gene were prepared. The full bphA promoter and shorter versions of it were PCR amplified using primers BPHPFwd (5′-[…]-3′, SEQ ID NO:19), BPHFR6 (5′-[…]-3′, SEQ ID NO:20), BPH331 (5′-[…]-3′, SEQ ID NO:21), and BPHPRev (5′-[…]-3′, SEQ ID NO:22). These primers introduced HindIII restriction sites (underlined) at both ends, which allowed cloning of the fragments upstream of the GFP gene contained within the pEBFP vector (Clontech, Palo Alto, Calif.).
The promoter-GFP fusions were called pBPH-1847-GFP, pBPH-531-GFP, and pBPH331-GFP, respectively. The selectable marker Pyr4 gene from Neurospora crassa, driven by its own promoter, was used to select putative A. nidulans transformed clones. The selectable marker was PCR-amplified from the pBS-Pyr4 vector using primers PyrEcoF (5′-[…]-3′, SEQ ID NO:23), and PyrEcoR (5′-[…]-3′, SEQ ID NO:24), which introduced EcoRI restriction sites (underlined) on both ends of the product. […]
Aspergillus nidulans GR5 protoplasts were prepared according to Aramayo and Timberlake ((1993) EMBO J. 12: 2039-2048), with some modifications. […] Concentration of protoplasts was determined using a hemacytometer, and adjusted to 10^8 protoplasts per mL. […]

For experiment [3], the system named is GAD1 and GAD11 genes. Description: RT-PCR expression of GAD1 and GAD11 genes in response to benzoic acid. The experiment is classed as cell-based, A. niger. Conditions: 8 mM benzoic acid for 5 h. On the procedure: Total RNA was extracted from uninduced and benzoic acid-induced A. niger mycelia as described earlier, and approximately 1 μg was used to synthesize first strand cDNAs with the SuperScript First-strand Synthesis System for RT-PCR (Invitrogen, Carlsbad, Calif.). The reaction was carried out in the presence of 0.5 μg of an oligo(dT) primer, 0.5 mM dNTP mix, 5 mM MgCl2, 10 mM DTT, 1× RT buffer (20 mM Tris.HCl pH 8.4, 50 mM KCl), RNAseOUT™ RNAse inhibitor, and 50 U of SuperScript™ II Reverse Transcriptase. Tubes were incubated at 42° C. for 50 min, after which the reaction was terminated at 70° C. for 15 min. RNAse H was added, and tubes were incubated for an additional 20 min at 37° C. Double-stranded cDNAs were amplified by PCR using Red Taq DNA Polymerase (Sigma-Aldrich, St. Louis, Mo.), dNTP's, and gene specific primers: GAD1F (5′-[…]-3′, SEQ ID NO:30), GAD1R (5′-[…]-3′, SEQ ID NO:31), GAD11F (5′-[…]-3′, SEQ ID NO:32), and GAD11R (5′-[…]-3′, SEQ ID NO:33). PCR amplification consisted of a denaturation step at 94° C. for 5 min, followed by 30 cycles, each of denaturation at 94° C. for 45 sec, annealing at 56° C. for 30 sec, and extension at 72° C. for 1 min. A final extension step at 72° C. for 10 min was also included. Amplified cDNAs were separated on a 0.8% agarose gel containing EtBr, and bands were visualized under UV light.

Entries after “also recorded” stand apart in the source; their conditions may differ.

As to `O=C(O)c1ccccc1` [benzoic acid], in experiment [1], the “expression of bzuA” value was “upregulated”. In addition, the “GFP expression from bphA promoter-GFP fusions” value in experiment [2] is “able to induce GFP expression only in the presence of the inducer”. Moreover, in experiment [3], the “expression of GAD1” value is “expressed constitutively; also recorded: constitutive” and the “expression of GAD11” value is “slightly downregulated; also recorded: slightly down-regulated”.

The record behind these values is patent US7705203B2, “Benzoate inductible promoters” (Purdue Research Foundation, priority 2002, dated 2010).
